Results from patent US7659278B2, “Use of low molecular weight compounds for preparing a medicament useful in treating mutant p53 mediated diseases” (Aprea AB, priority 2002, dated 2010).
Read-outs that look alike come from different tables or passages of the source.

Key:
[1] = system: H1299-His-175 lung adenocarcinoma cells; assay: WST-1 growth inhibition by structural analogues, H1299-His-175 cells with or without doxycycline; type: cell-based, human; conditions: for IC50: Homo sapiens, 48 h, WST-1; for R H1299-His175: ratio IC50p53null/IC50mtp53
Description: (§1) After 12h cells were treated with analogues and incubated with compounds for 48 h. Then WST-1 cell proliferating reagent was added to each well and cell survival was estimated by reading absorbance at 450 nm by ELISA reader. The effect of structural analogues on cell growth was tested using different concentrations of the compounds, ranging from 0.1; 1; 5; 10 and 25 μM. After that curves of growth inhibition were generated based on a rational function Y=(b+cx)/1+ax by using Microcal Origin software. The coefficients (a,b,c) of the equation were determined by employing Levenberg-Marquardt algorithm.
(§2) The specificity of each compound was determined by calculation of ratio IC50p53null/IC50mtp53. Ratios equal to 1 or less are indicating non-specific activity.

[2] = system: Saos-2-His-273 osteosarcoma cells; assay: WST-1 growth inhibition by structural analogues, Saos-2-His-273 cells with or without doxycycline; type: cell-based, human; conditions: for IC50: Homo sapiens, 48 h, WST-1; for R Saos-2His273: ratio IC50p53null/IC50mtp53
Description: as §1, §2

[3] = Dox+ (p53 null), read-out: IC50 H1299-His175 Dox+
[4] = Dox− (mutant p53 expressed), read-out: IC50 H1299-His175 Dox−
[5] = Dox+ (p53 null), read-out: IC50 Saos-2His273 Dox+
[6] = Dox− (mutant p53 expressed), read-out: IC50 Saos-2His273 Dox−

SMILES | IC50 [1, 3] | IC50 [1, 4] | R H1299-His175 [1] | IC50 [2, 5] | IC50 [2, 6] | R Saos-2His273 [2]
O=C1C2CCN(CC2)C1CN1C=NC2C(Cl)=NC(Cl)=NC21 (stereo not drawn) [2-(2,6-dichloro-9-methylenepurine)-3-quinuclidinone] | 4.9 µM | 3.2 µM | 1.53 | 6.2 µM | 2.54 µM | 2.44
Cc1cc2ncn(CC3C(=O)C4CCN3CC4)c2cc1C (stereo not drawn) [2-(5,6-dimethyl-benzimidazole-1-methylene)-3-quinuclidinone] | 7.1 µM | 4.75 µM | 1.51 | 9.24 µM | 4 µM | 2.31
COc1ncnc2c1ncn2CC1C(=O)C2CCN1CC2 (stereo not drawn) [2-(6-methoxypurine-9-methylene)-3-quinuclidinone] | 23.2 µM | 15.5 µM | 1.5 | 26 µM | 13.7 µM | 1.9
Cn1c(=O)c2c([nH]c(=O)n2CC2C(=O)C3CCN2CC3)n(C)c1=O (stereo not drawn) [2-(7-methylene-1,3-dimethyluric acid)-3-quinuclidinone] | 5.2 µM | 4.1 µM | 1.26 | 5.51 µM | 2.74 µM | 2.01
Nc1ncnc2nnn(CC3C(=O)C4CCN3CC4)c12 (stereo not drawn) [2-(8-azaadenine-7-methylene)-3-quinuclidinone] | 4.2 µM | 3.3 µM | 1.27 | 7.27 µM | 2.79 µM | 2.61
C=Cc1nc2ccccc2c(=O)[nH]1 [2-ethylene-4(3H)-quinazolinone] | 3.9 µM | 1.4 µM | 2.8 | 5.05 µM | 3.97 µM | 1.27
CN1C(=O)C=CC1=O [N-methylmaleimide] | 5.4 µM | 2.9 µM | 1.86 | 6.45 µM | 4.04 µM | 1.6
O=C1C=CC(=O)N1 [maleimide] | 5.2 µM | 3 µM | 1.73 | 7.59 µM | 3.37 µM | 2.25
